The record followed here is ChEMBL document CHEMBL1667847, “Quinazolines with intra-molecular hydrogen bonding scaffold (iMHBS) as PI3K/mTOR dual inhibitors” (Bioorg Med Chem Lett, 2011).

The target in assay [1] is T1, Phosphatidylinositol 4,5-bisphosphate 3-kinase catalytic subunit alpha isoform (Homo sapiens, UniProt P42336). The assay can be described thus: Inhibition of PI3Kalpha by fluorescene polarization assay.
The target of assay [2] is T2, Serine/threonine-protein kinase mTOR (Homo sapiens, UniProt P42345). Description: Inhibition of mTOR.
Assay [3] addresses T2, Serine/threonine-protein kinase mTOR. The assay can be described thus: Inhibition of mTOR at 1 uM.
Assay [4] concerns the target T1, Phosphatidylinositol 4,5-bisphosphate 3-kinase catalytic subunit alpha isoform. Description: Inhibition of PI3Kalpha-phosphorylation at S473 residue in human BT20 cells. The class given is cell-based, BT-20.

T1 sequence (P42336 whole entry, canonical isoform): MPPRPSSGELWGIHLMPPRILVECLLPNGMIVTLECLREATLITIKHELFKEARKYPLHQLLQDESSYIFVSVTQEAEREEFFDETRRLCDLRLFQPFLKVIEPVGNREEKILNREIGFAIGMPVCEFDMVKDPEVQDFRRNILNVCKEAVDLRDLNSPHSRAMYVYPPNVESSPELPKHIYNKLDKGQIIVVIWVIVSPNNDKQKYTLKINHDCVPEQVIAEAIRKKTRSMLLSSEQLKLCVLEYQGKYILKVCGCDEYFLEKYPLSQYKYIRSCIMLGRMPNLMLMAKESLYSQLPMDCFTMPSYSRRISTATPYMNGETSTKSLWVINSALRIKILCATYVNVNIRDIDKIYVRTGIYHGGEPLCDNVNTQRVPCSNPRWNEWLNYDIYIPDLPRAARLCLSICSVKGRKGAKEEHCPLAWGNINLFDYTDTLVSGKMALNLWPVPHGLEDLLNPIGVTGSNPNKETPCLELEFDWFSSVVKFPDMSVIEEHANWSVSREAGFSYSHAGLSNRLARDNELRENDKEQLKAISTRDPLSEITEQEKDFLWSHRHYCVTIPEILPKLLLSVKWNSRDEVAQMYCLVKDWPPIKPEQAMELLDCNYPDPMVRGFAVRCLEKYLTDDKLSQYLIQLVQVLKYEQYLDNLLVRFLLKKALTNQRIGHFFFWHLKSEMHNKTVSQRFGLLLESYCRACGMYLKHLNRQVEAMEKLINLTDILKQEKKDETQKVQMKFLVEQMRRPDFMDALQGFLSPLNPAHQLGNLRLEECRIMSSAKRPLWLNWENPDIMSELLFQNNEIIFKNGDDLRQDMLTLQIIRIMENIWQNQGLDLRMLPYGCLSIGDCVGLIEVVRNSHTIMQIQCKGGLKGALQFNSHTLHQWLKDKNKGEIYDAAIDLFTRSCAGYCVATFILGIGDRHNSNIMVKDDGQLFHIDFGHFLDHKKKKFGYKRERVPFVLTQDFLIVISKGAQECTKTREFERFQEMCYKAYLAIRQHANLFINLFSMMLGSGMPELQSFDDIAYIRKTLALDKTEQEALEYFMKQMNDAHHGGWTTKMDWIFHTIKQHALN

For the molecule `Cc1nc(N)c2cccc(C(=O)Nc3ccc(N(C)C)nc3)c2n1`, the values for the Ki in assay [1] and in assay [2] were 54 nM and 1000 nM, respectively. This molecule gave an inhibition in assay [3] of 57%.
As for `Cc1cc(C(=O)Nc2cn[nH]c2)c2nc(C)nc(N)c2c1`, the IC50 in assay [4] came out at 24 nM. Further, the inhibition constant Ki in assay [1] stood at 5 nM; in assay [2], 84 nM.
As for `Cc1nc(N)c2ccc(C)c(C(=O)Nc3ccc(N(C)C)nc3)c2n1`, the inhibition constant (Ki) in assay [1] was greater than 100 nM.
Regarding `Cc1nc(N)c2cccc(C(=O)Nc3cnc4[nH]ccc4c3)c2n1`, the inhibition constant Ki in assay [1] stood at 1 nM; in assay [2] it was 5 nM.
Take `COc1ccc(NC(=O)c2c(C)ccc3c(N)nc(C)nc23)cn1`: the inhibitory constant (Ki) is greater than 100 nM in assay [1] and 1000 nM in assay [2]. The same molecule came in with an inhibition in assay [3] of 15%.
As to `Cc1nc(N)c2cc(CN3CCOCC3)cc(C(=O)Nc3ccn[nH]3)c2n1`, the Ki in assay [1] was determined as 15 nM; in assay [2], 13 nM.
The like results for `Cc1ccc(NC(=O)c2c(C)ccc3c(N)nc(C)nc23)cn1` were, in that order, 4550 nM and 3250 nM.
For `Cc1nc(N)c2ccc(C)c(C(=O)Nc3ccn[nH]3)c2n1`, the results for the inhibition constant Ki in assay [1] and in assay [2] were 4550 nM and 984 nM, respectively.
The like results for `Cc1nc(N)c2ccc(C)c(C(=O)Nc3cnc4[nH]ccc4c3)c2n1` were, in that order, 631 nM and 216 nM.
In turn, `Cc1cc(C(=O)Nc2ccn[nH]2)c2nc(C)nc(N)c2c1` registered an IC50 in assay [4] of 35 nM. For the same molecule, the values for the Ki in assay [1] and in assay [2] were 7 nM and 3 nM, respectively.
The like results for `Cc1cc(C(=O)Nc2cnc3[nH]ccc3c2)c2nc(C)nc(N)c2c1` were, in that order, 43 nM, 0.3 nM and 17 nM.
In the same order, the values of `Cc1cc(C(=O)Nc2ccc(C)nc2)c2nc(C)nc(N)c2c1` are 88 nM, 0.5 nM and 66 nM.
In the case of `Cc1cc(C(=O)Nc2ccc(N(C)C)nc2)c2nc(C)nc(N)c2c1`, the inhibition constant (Ki) in assay [1] stood at 12 nM; in assay [2], 162 nM.
`Cc1ccc(NC(=O)c2cccc3c(N)nc(C)nc23)cn1`: the concentration for half-maximal inhibition (IC50) in assay [4] was found to be 112 nM. Moreover, the Ki in assay [1] was 0.5 nM; in assay [2], 31 nM.
In the case of `Cc1nc(N)c2ccc(C)c(C(=O)Nc3cn[nH]c3)c2n1`, in assay [1], the inhibitory constant (Ki) is greater than 100 nM.
On to `Cc1nc(N)c2cccc(C(=O)Nc3cn[nH]c3)c2n1`, for which the figures for the Ki in assay [1] and in assay [2] were 6 nM and 21 nM, respectively.
In the same order, the values of `Cc1nc(N)c2cc(CN(C)C)cc(C(=O)Nc3ccn[nH]3)c2n1` are 188 nM and 1330 nM.
The like results for `COc1ccc(NC(=O)c2cc(C)cc3c(N)nc(C)nc23)cn1` were, in that order, 0.5 nM and 265 nM.

One may read the Ki as the equilibrium dissociation constant of an inhibitor or competing ligand from its target. Higher therefore signals weaker binding. By inhibition is commonly meant the relative decrease from the control value, in per cent. Broadly, the IC50 is the concentration needed to halve the response being measured. A low value points to inhibition by little substance.
